Data: BindingDB's records for doi:10.7270/Q2N014XN (Srmlsc, 2007)
pIC50: −log10 of the molar value. Where a name gives a salt, the structure may show the parent alone.

What follows are molecules tested against T1, Diphosphomevalonate decarboxylase (Streptococcus pneumoniae serotype 2 (strain D39 / NCTC 7466), UniProt A0A0H2ZN59) (assay: S. pneumoniae DPM-DC inhibitor potency, dose response, biochemical, PK/LDH-coupled NADH fluorescence, hexokinase coupling counter-screen (AID 550)). Conditions: not given.
T1 sequence (A0A0H2ZN59 whole entry): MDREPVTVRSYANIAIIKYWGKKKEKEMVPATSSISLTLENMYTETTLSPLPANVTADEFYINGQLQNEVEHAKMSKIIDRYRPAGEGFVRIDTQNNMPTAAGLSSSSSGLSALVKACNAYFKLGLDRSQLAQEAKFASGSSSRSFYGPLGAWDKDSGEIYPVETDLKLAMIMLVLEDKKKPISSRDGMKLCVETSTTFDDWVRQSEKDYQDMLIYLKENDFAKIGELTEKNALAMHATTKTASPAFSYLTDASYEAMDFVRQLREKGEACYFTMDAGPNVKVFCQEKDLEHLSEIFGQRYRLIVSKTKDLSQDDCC
In the case of COC(=O)c1cc2occc2n1CC(=O)Nc1ccc(OC)c(OC)c1OC [4-[2-keto-2-(2,3,4-trimethoxyanilino)ethyl]furo[3,2-b]pyrrole-5-carboxylic acid methyl ester], the pIC50 was less than 2.00. Work on Sc1nnc(-c2ccccc2)n1C1C=CCCC1 (stereo not given) [MLS000111390] yielded a pIC50 of less than 2.00. In the case of Cc1ccsc1C1C(C(=O)O)c2ccccc2C(=O)N1C (stereo not given) [1-keto-2-methyl-3-(3-methyl-2-thienyl)-3,4-dihydroisoquinoline-4-carboxylic acid], the pIC50 was less than 2.00. With Cc1cc(N2CCOCC2)c2c(N)c(Br)cc(C)c2n1 [(6-bromo-2,8-dimethyl-4-morpholino-5-quinolyl)amine] the pIC50 was less than 2.00. Molecule CCOC(=O)c1cc2c(=O)n3ccccc3nc2n(C(C)C)/c1=N\C(=O)c1ccncc1 [2-isonicotinoylimino-1-isopropyl-5-keto-dipyrido[1,2-d:3',4'-f]pyrimidine-3-carboxylic acid ethyl ester] has a pIC50 of 4.82. Nc1c(C(=O)NC2CCCC2)sc2nc(-c3cccs3)ccc12 [3-Amino-6-thiophen-2-yl-thieno[2,3-b]pyridine-2-carboxylic acid cyclopentylamide] showed a pIC50 of 3.76. O=C(O)c1c(-c2ccccc2)c2oc3ccccc3c2[nH]c1=O was tested, and the pIC50 was 4.77. For CC(C)(CO)NC(=O)C(c1ccccc1)c1ccccc1 [MLS000062471], the pIC50 was less than 2.00. CC(C)(O)P(C)(=O)c1ccccc1 (stereo not given) [2-[methyl(phenyl)phosphoryl]-2-propanol] was tested, and the pIC50 was less than 2.00. Molecule CCN(CC)c1nc2ccccc2n2cnnc12 has a pIC50 of less than 2.00. COc1cc(NC(=O)c2ccco2)c(OC)cc1NC(=O)CCC(=O)Nc1cc(C)ccc1C [MLS000072545] was tested, and the pIC50 was less than 2.00. With CCOC(=O)c1cncc(NC(=O)c2ccccc2)c1 [5-benzamido-3-pyridinecarboxylic acid ethyl ester] the pIC50 was less than 2.00. With CN(C)[C@@H]1C(=O)C(C(N)=O)C(=O)[C@@]2(O)C(=O)C3C(=O)c4c(O)cccc4[C@@](C)(O)[C@H]3[C@H](O)[C@@H]12 (stereo partly drawn) [(2E,4S,4aR,5S,5aR,6S,12aS)-2-[azanyl(oxidanyl)methylidene]-4-(dimethylamino)-6-methyl-5,6,10,11,12a-pentakis(oxidanyl)-4,4a,5,5a-tetrahydrotetracene-1,3,12-trione] the pIC50 was 4.43. COc1ccc2c(c1)-c1ccccc1S(=O)(=O)N2C(C)=O [1-(5,5-diketo-9-methoxy-benzo[c][1,2]benzothiazin-6-yl)ethanone] was tested, and the pIC50 was 4.10. In the case of N#Cc1c(NCCO)nc(NCc2ccccc2)c2c1CCN(Cc1ccccc1)C2 [3-(2-hydroxyethylamino)-7-(phenylmethyl)-1-[(phenylmethyl)amino]-6,8-dihydro-5H-2,7-naphthyridine-4-carbonitrile], the pIC50 was 4.41. For Cc1coc2cc3oc(=O)c4c(c3cc12)CCC4 [MLS000054228], the pIC50 was 4.28. Work on COc1ccc(C(=O)NCc2cn3c(C)csc3n2)cc1OC [3,4-dimethoxy-N-[(3-methyl-6-imidazo[2,1-b]thiazolyl)methyl]benzamide] yielded a pIC50 of less than 2.00. In the case of O=C(NCc1ccco1)c1ccccc1NS(=O)(=O)c1ccc2c(c1)OCCO2 [2-(2,3-dihydro-1,4-benzodioxin-6-ylsulfonylamino)-N-(2-furanylmethyl)benzamide], the pIC50 was 4.37. In the case of CCOC(=O)Cc1csc(-n2sc3ccccc3c2=O)n1 [MLS000082162], the pIC50 was 5.12. COC(=O)c1ccc(Nc2cc(C)nc(-c3ccccc3O)n2)cc1 [4-[[(2E)-2-(6-ketocyclohexa-2,4-dien-1-ylidene)-6-methyl-1H-pyrimidin-4-yl]amino]benzoic acid methyl ester] gave a pIC50 of 4.73. With Cc1cc(=O)[nH]c2ccccc12 the pIC50 was less than 2.00. Molecule N#Cc1c(S)nc2c(c1-c1cccnc1)CCCC2 [SMR000104204] has a pIC50 of 4.70. Work on CCn1c2ccccc2c2nc3cc(OC)c(OC)cc3nc21 [6-Ethyl-2,3-dimethoxy-6H-indolo[2,3-b]quinoxaline] yielded a pIC50 of 4.51. CCOC(=O)CSc1cc(=O)n(C)c2cc(Cl)ccc12 [2-[(7-chloro-1-methyl-2-oxo-4-quinolinyl)thio]acetic acid ethyl ester] showed a pIC50 of less than 2.00. O=C(NCc1cccnc1)c1ccc2c(=O)n(CCCN3CCCC3=O)c(=S)[nH]c2c1 [4-oxidanylidene-3-[3-(2-oxidanylidenepyrrolidin-1-yl)propyl]-N-(pyridin-3-ylmethyl)-2-sulfanylidene-1H-quinazoline-7-carboxamide] was tested, and the pIC50 was less than 2.00. COc1cccc(C=Nn2c(C)nnc2C)c1OC [(2,3-dimethoxybenzylidene)-(3,5-dimethyl-1,2,4-triazol-4-yl)amine] gave a pIC50 of less than 2.00. For Cn1c(-c2ccc(N)cc2)nc2ccccc21 [4-(1-methyl-2-benzimidazolyl)aniline], the pIC50 was less than 2.00. Molecule Cc1c(NC(=O)CN2c3cccc4cccc(c34)S2(=O)=O)c(=O)n(-c2ccccc2)n1C [MLS000050268] has a pIC50 of 4.47. Work on CCOC(=O)c1cc2c(cn1)[nH]c1ccccc12 yielded a pIC50 of 4.31. For O=C(Nc1ccc(-c2nc3ncccc3o2)cc1)c1ccco1 [MLS000062759], the pIC50 was 4.46. Molecule COc1ccc(-c2coc3cc(O)ccc3c2=O)cc1OC [3-(3,4-dimethoxyphenyl)-7-hydroxy-1-benzopyran-4-one] has a pIC50 of 4.72. COC(=O)c1c(C(=O)OC)c2ccncn2c1Cl [7-Chloro-pyrrolo[1,2-c]pyrimidine-5,6-dicarboxylic acid dimethyl ester] gave a pIC50 of 4.57. CCc1ccc(NC(=O)c2cnc3scc(C)n3c2=O)cc1 [MLS000102000] was tested, and the pIC50 was less than 2.00. With CC(C)c1nc2oc3c(NCc4ccccn4)ncnc3c2c2c1COC(C)(C)C2 [MLS000084035] the pIC50 was 3.09. CN1CCN(CCNC(=O)c2cc3c(=O)n(C)c4ccccc4c3n2C)CC1 [1,5-dimethyl-N-[2-(4-methyl-1-piperazinyl)ethyl]-4-oxo-2-pyrrolo[3,2-c]quinolinecarboxamide] gave a pIC50 of 3.12. Molecule CC1Cc2nc(SCC(=O)Nc3ccc4c(c3)OCO4)n(CCc3ccccc3)c(=O)c2S1 (stereo not given) [MLS000101671] has a pIC50 of less than 2.00. With Cc1nc2cc(NC(=O)NCc3ccco3)ccc2n1C [1-(1,2-dimethyl-5-benzimidazolyl)-3-(2-furanylmethyl)urea] the pIC50 was less than 2.00. Molecule O=C1NC(=O)C(CC(=O)N(c2ccccc2)C2(C(=O)NC3CCCC3)CCCCC2)N1 (stereo not given) [1-[2-[2,5-bis(oxidanylidene)imidazolidin-4-yl]ethanoyl-phenyl-amino]-N-cyclopentyl-cyclohexane-1-carboxamide] has a pIC50 of less than 2.00. CCOC(=O)C1=C(C)N=C(C)C(C(=O)OCC)C1c1cc2ccc(C)cc2[nH]c1=O (stereo not given) [diethyl 2,6-dimethyl-4-(7-methyl-2-oxidanylidene-1H-quinolin-3-yl)-1,4-dihydropyridine-3,5-dicarboxylate] showed a pIC50 of 3.83. Cn1c(SCC(=O)N2CCOCC2)nnc1-c1ccc(NC(=O)c2ccccc2F)cc1 [2-fluoranyl-N-[4-[4-methyl-5-(2-morpholin-4-yl-2-oxidanylidene-ethyl)sulfanyl-1,2,4-triazol-3-yl]phenyl]benzamide] was tested, and the pIC50 was less than 2.00. CCOC(=O)N1CCN(C(=O)c2cn(CC)c3cc(N4CCN(C)CC4)c(F)cc3c2=O)CC1 [4-[1-ethyl-6-fluoro-4-keto-7-(4-methylpiperazino)quinoline-3-carbonyl]piperazine-1-carboxylic acid ethyl ester;hydrochloride] showed a pIC50 of 4.30. Work on Cc1ccccc1CN1CCN(S(=O)(=O)c2ccc(F)cc2)CC1 [1-(4-fluorophenyl)sulfonyl-4-(2-methylbenzyl)piperazine] yielded a pIC50 of less than 2.00. With OCCNc1ncnc2c1c(-c1ccccc1)c(-c1ccccc1)n2Cc1ccco1 [2-[[7-(2-furanylmethyl)-5,6-diphenyl-4-pyrrolo[2,3-d]pyrimidinyl]amino]ethanol] the pIC50 was less than 2.00. Work on Cc1c(C(=O)NCc2ccc3c(c2)OCO3)sc2nc(-c3ccccc3)cn12 [3-methyl-6-phenyl-N-piperonyl-imidazo[2,1-b]thiazole-2-carboxamide] yielded a pIC50 of less than 2.00. COC(=O)c1[nH]c2ccc(Cl)cc2c1NC(=O)CCN1CCOCC1 [5-chloro-3-[[3-(4-morpholinyl)-1-oxopropyl]amino]-1H-indole-2-carboxylic acid methyl ester] gave a pIC50 of 3.83. In the case of COCCn1nnnc1CN(Cc1cccnc1)Cc1cc2cc(OC)ccc2[nH]c1=O [6-methoxy-3-[[[1-(2-methoxyethyl)-5-tetrazolyl]methyl-(3-pyridinylmethyl)amino]methyl]-1H-quinolin-2-one], the pIC50 was less than 2.00. For COc1ccc(-c2nnc(Nc3nc4c(OC)cccc4s3)o2)c(OC)c1 [5-(2,4-dimethoxyphenyl)-N-(4-methoxy-1,3-benzothiazol-2-yl)-1,3,4-oxadiazol-2-amine], the pIC50 was 5.18. Molecule Clc1c(-c2nnc3n2CCC3)sc2ccccc12 [3-(3-chloranyl-1-benzothiophen-2-yl)-6,7-dihydro-5H-pyrrolo[2,1-c][1,2,4]triazole] has a pIC50 of less than 2.00. CCOc1ccc(C(=O)O)cc1OC [4-ethoxy-3-methoxy-benzoic acid] showed a pIC50 of less than 2.00. In the case of COc1cc2c(cc1OC)C(CC(=O)N1CCOCC1)=NC(C)(C)C2 [(2Z)-2-(6,7-dimethoxy-3,3-dimethyl-2,4-dihydroisoquinolin-1-ylidene)-1-(4-morpholinyl)ethanone;hydrochloride], the pIC50 was 4.41.

Same assay, conditions: inactive by the depositor's call
For CCN(CC)c1ccc(C=Nn2c(=S)[nH]nc(C)c2=O)cc1 [4-[[4-(diethylamino)phenyl]methylideneamino]-6-methyl-3-sulfanylidene-2H-1,2,4-triazin-5-one], the pIC50 was 4.70. In the case of Nc1cc(C(=O)O)ccc1Nc1ccccc1 [3-amino-4-anilino-benzoic acid], the pIC50 was 3.92. Nc1nc2c(s1)CCc1c-2cnn1-c1ccccc1 [MLS000085948] showed a pIC50 of 5.02. With Clc1cccc(-c2ccc(C=Nn3cnnc3)o2)c1 [1-[5-(3-chlorophenyl)-2-furanyl]-N-(1,2,4-triazol-4-yl)methanimine] the pIC50 was 4.00. Nc1cccc2c1C(=O)N(c1ccccc1)C2=O [4-azanyl-2-phenyl-isoindole-1,3-dione] was tested, and the pIC50 was 4.22.
